# Experimental data taken from ChEMBL document CHEMBL6071190, “Discovery of BAY 2666605, a Molecular Glue for PDE3A and SLFN12” (ACS Med Chem Lett, 2024).
# How the values were obtained:
# [1] = Metabolic stability in rat hepatocytes assessed as bioavailability at 1 uM measured upto 90 mins by LC-MS/MS analysis; assay type: ADME, Hepatocyte
# SK-MEL3 = test: Antiproliferative activity against human SK-MEL3 cells incubated for 72 hrs by Cell Titer Glo luminescence assay; assay type: functional, cell-based; details: SK-MEL3, 72 h
# HeLa = test: Antiproliferative activity against human HeLa cells incubated for 72 hrs by Cell Titer Glo luminescence assay; assay type: functional, cell-based
# [2] = Selectivity ratio of IC50 for inhibition of full-length human PDE3A expressed in Sf9 cells to EC50 for antiproliferative activity against human HeLa cells
# [3] = Metabolic stability in mouse hepatocytes assessed as bioavailability at 1 uM measured upto 90 mins by LC-MS/MS analysis; assay type: ADME, Hepatocyte
# [4] = target: cGMP-inhibited 3',5'-cyclic phosphodiesterase 3A (Homo sapiens, UniProt Q14432); test: Inhibition of human full-length PDE3A expressed in Sf9 cells using [8-3H]adenosine 3', 5'-cyclic phosphate as substrate incubated for 60 mins by microbeta scintillation counting method
# Sequence of cGMP-inhibited 3',5'-cyclic phosphodiesterase 3A (Q14432 whole entry): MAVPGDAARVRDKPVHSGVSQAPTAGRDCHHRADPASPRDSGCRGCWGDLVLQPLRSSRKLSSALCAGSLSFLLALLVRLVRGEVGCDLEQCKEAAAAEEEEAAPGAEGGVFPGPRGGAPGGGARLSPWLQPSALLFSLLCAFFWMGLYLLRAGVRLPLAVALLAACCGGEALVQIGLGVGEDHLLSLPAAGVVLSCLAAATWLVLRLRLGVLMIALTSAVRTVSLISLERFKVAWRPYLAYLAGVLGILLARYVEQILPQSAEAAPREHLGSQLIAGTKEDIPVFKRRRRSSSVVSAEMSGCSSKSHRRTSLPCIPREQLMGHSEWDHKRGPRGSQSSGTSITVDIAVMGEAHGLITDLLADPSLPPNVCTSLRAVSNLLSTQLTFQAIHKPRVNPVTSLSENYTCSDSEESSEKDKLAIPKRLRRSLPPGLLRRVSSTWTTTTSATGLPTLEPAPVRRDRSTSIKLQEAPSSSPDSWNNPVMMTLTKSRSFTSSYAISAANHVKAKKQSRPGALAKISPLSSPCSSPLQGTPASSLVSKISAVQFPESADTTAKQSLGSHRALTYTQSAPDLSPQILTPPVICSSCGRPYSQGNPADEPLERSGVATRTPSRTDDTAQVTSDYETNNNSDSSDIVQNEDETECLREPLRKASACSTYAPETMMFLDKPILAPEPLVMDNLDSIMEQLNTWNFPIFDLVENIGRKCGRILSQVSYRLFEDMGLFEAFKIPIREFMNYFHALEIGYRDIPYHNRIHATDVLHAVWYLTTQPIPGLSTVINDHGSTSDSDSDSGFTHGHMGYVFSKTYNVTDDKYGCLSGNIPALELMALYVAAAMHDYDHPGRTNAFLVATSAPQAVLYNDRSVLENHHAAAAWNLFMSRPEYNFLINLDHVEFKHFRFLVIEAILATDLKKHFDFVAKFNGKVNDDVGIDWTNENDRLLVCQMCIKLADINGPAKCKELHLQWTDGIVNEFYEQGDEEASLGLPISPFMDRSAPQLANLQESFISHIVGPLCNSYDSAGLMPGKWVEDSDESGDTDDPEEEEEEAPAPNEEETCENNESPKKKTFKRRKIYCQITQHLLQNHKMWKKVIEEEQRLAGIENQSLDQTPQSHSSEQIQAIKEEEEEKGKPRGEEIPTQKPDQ
smiles,measurement,setting,value
C[C@@H]1OC(=O)NN=C1c1ccc(-c2ccncc2)c(C(F)(F)F)c1,predicted hepatic bioavailability (Fh) from hepatocyte stability at 1 µM,[1],93%
same,EC50,SK-MEL3,1.09 nM
same,EC50,HeLa,0.6 nM
same,Ratio IC50/EC50,[2],112
same,"Fh at 1.5 h, 1 µM",[3],41%
same,IC50,[4],67 nM
C[C@@H]1OC(=O)NN=C1c1ccc(N2CCOCC2)c(C(F)(F)F)c1,predicted hepatic bioavailability (Fh) from hepatocyte stability at 1 µM,[1],84%
same,EC50,SK-MEL3,0.77 nM
same,EC50,HeLa,0.34 nM
same,Ratio IC50/EC50,[2],18
same,IC50,[4],6.3 nM
Cc1ccncc1-c1ccc(C2=NNC(=O)O[C@H]2C)cc1C(F)(F)F,EC50,SK-MEL3,54.2 nM
same,EC50,HeLa,38.7 nM
same,Ratio IC50/EC50,[2],6
O=C1CCC(c2ccc(N3CCOCC3)c(F)c2)=NN1,EC50,SK-MEL3,19.9 nM
same,EC50,HeLa,6.18 nM
same,Ratio IC50/EC50,[2],31
same,"Fh at 1.5 h, 1 µM",[3],80%
same,IC50,[4],190 nM
O=C1CCC(c2ccc(N3CCOCC3)cc2)=NN1,EC50,SK-MEL3,101 nM
same,EC50,HeLa,78.3 nM
same,Ratio IC50/EC50,[2],>12
same,IC50,[4],> 1000 nM
C[C@@H]1CC(=O)NN=C1c1cc(F)c(N2CCOCC2)c(F)c1,predicted hepatic bioavailability (Fh) from hepatocyte stability at 1 µM,[1],90%
same,EC50,SK-MEL3,2.07 nM
same,EC50,HeLa,0.97 nM
same,Ratio IC50/EC50,[2],4
same,IC50,[4],3.95 nM
Cc1ccc(-c2ccc(C3=NNC(=O)O[C@H]3C)cc2C(F)(F)F)cn1,EC50,SK-MEL3,6.31 nM
same,EC50,HeLa,4.37 nM
same,Ratio IC50/EC50,[2],8
C[C@@H]1OC(=O)NN=C1c1ccc(N2CCN(C)CC2)c(C(F)(F)F)c1,predicted hepatic bioavailability (Fh) from hepatocyte stability at 1 µM,[1],11%
same,EC50,SK-MEL3,0.82 nM
same,EC50,HeLa,0.32 nM
same,Ratio IC50/EC50,[2],172
same,"Fh at 1.5 h, 1 µM",[3],18%
same,IC50,[4],55 nM
C[C@@H]1OC(=O)NN=C1c1ccc(-c2ccc(O)cc2)c(C(F)(F)F)c1,EC50,SK-MEL3,1.14 nM
same,EC50,HeLa,0.68 nM
same,Ratio IC50/EC50,[2],38
same,IC50,[4],26.2 nM
C[C@@H]1OC(=O)NN=C1c1ccc(-c2ccccc2F)c(C(F)(F)F)c1,EC50,SK-MEL3,15.1 nM
same,EC50,HeLa,8.19 nM
same,Ratio IC50/EC50,[2],18
O=C1CCC(c2cc(Cl)c(N3CCOCC3)c(Cl)c2)=NN1,EC50,SK-MEL3,16.8 nM
same,EC50,HeLa,6.9 nM
same,Ratio IC50/EC50,[2],8.5
C[C@@H]1CC(=O)NN=C1c1ccc(N2CCOCC2)c(F)c1,predicted hepatic bioavailability (Fh) from hepatocyte stability at 1 µM,[1],94%
same,EC50,SK-MEL3,1.38 nM
same,EC50,HeLa,0.68 nM
same,Ratio IC50/EC50,[2],18
same,IC50,[4],12.7 nM
O=C1NN=C(c2ccc(N3CCOCC3)c(C(F)(F)F)c2)CO1,predicted hepatic bioavailability (Fh) from hepatocyte stability at 1 µM,[1],83%
same,EC50,SK-MEL3,3.4 nM
same,EC50,HeLa,1.87 nM
same,Ratio IC50/EC50,[2],12
same,IC50,[4],23 nM
O=C1NN=C(c2ccc(-c3ccc(F)cc3)c(F)c2)CO1,predicted hepatic bioavailability (Fh) from hepatocyte stability at 1 µM,[1],84%
same,EC50,SK-MEL3,3.6 nM
same,EC50,HeLa,1.48 nM
same,Ratio IC50/EC50,[2],57
same,"Fh at 1.5 h, 1 µM",[3],54%
same,IC50,[4],84 nM
COc1ccc(-c2ccc(C3=NNC(=O)O[C@H]3C)cc2C(F)(F)F)cc1,EC50,SK-MEL3,37.7 nM
same,EC50,HeLa,21.8 nM
same,Ratio IC50/EC50,[2],4.1
C[C@@H]1CC(=O)NN=C1c1ccc(N2CCCCC2)cc1,predicted hepatic bioavailability (Fh) from hepatocyte stability at 1 µM,[1],27%
same,EC50,SK-MEL3,4.48 nM
same,EC50,HeLa,1.72 nM
same,Ratio IC50/EC50,[2],126
same,IC50,[4],217 nM
C[C@@H]1OC(=O)NN=C1c1ccc(N2CCOCC2)c(F)c1,predicted hepatic bioavailability (Fh) from hepatocyte stability at 1 µM,[1],90%
same,EC50,SK-MEL3,2.6 nM
same,EC50,HeLa,1.83 nM
same,Ratio IC50/EC50,[2],23
same,IC50,[4],43 nM
C[C@@H]1OC(=O)NN=C1c1ccc(-c2cccc(F)c2)c(C(F)(F)F)c1,EC50,SK-MEL3,5.85 nM
same,EC50,HeLa,3.42 nM
same,Ratio IC50/EC50,[2],22
C[C@@H]1CC(=O)NN=C1c1cc(F)c(N2CCOCC2)c(Cl)c1,predicted hepatic bioavailability (Fh) from hepatocyte stability at 1 µM,[1],58%
same,EC50,SK-MEL3,0.9 nM
same,EC50,HeLa,0.35 nM
same,Ratio IC50/EC50,[2],5.5
same,IC50,[4],1.9 nM
COc1ccc(-c2ccc(C3=NNC(=O)O[C@H]3C)cc2C(F)(F)F)cn1,EC50,SK-MEL3,39.8 nM
same,EC50,HeLa,22.5 nM
same,Ratio IC50/EC50,[2],4
Cc1cc(-c2ccc(C3=NNC(=O)O[C@H]3C)cc2C(F)(F)F)ccn1,EC50,SK-MEL3,6.13 nM
same,EC50,HeLa,4.58 nM
same,Ratio IC50/EC50,[2],14
